Molecules are shown by their SMILES.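 Growth conditions: 96-well plates. Treatment: test compound, 48 hours, 5 concentrations. Analysis: linear interpolation between bracketing concentrations; unreached endpoints set to highest concentration. Definition used: TGI = concentration required for complete inhibition of growth.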

Among the test systems are A498 renal; DU-145 prostate; NCI-H522 lung; HCT-116 colon; LOX IMVI melanoma; UO-31 renal; OVCAR-5 ovarian; OVCAR-4 ovarian; MDA-N; SK-MEL-2 melanoma; 786-0 renal; SK-MEL-28 melanoma; KM12 colon; SR leukemia; OVCAR-8 ovarian; M14 melanoma; TK-10 renal; RXF 393 renal; NCI-H460 lung; SW-620 colon.
Test in all cases: growth of human tumour cells (NCI), 48 h

Take `O1C2C1C1OC1C1OC1C1OC21` (stereo not drawn): the TGI in the experiment with A498 renal, with DU-145 prostate, with NCI-H522 lung, in the experiment on HCT-116 colon, with LOX IMVI melanoma and in the experiment on UO-31 renal was > 100 µM each time. Moreover, the TGI with OVCAR-5 ovarian, in the experiment on OVCAR-4 ovarian, in the experiment on MDA-N, in the experiment with SK-MEL-2 melanoma, in the experiment on 786-0 renal and in the experiment with SK-MEL-28 melanoma was > 100 µM in each case. Besides, the TGI in the experiment with KM12 colon, in the experiment on SR leukemia, with OVCAR-8 ovarian, in the experiment with M14 melanoma and with TK-10 renal was > 100 µM in each case.

For `COc1ccc(N=C2C(=Nc3ccc(OC)cc3)N(S(=O)(=O)c3ccccc3)C(=S)N2c2ccccc2)cc1`, the TGI in the experiment on DU-145 prostate, in the experiment on NCI-H522 lung, with RXF 393 renal, in the experiment with UO-31 renal, in the experiment on OVCAR-5 ovarian and with MDA-N was > 100 µM throughout. Besides, the TGI in the experiment on SK-MEL-2 melanoma, in the experiment with 786-0 renal, in the experiment on SK-MEL-28 melanoma, in the experiment with KM12 colon, with SR leukemia and with NCI-H460 lung was > 100 µM throughout. Moreover, the TGI in the experiment with OVCAR-8 ovarian, in the experiment with M14 melanoma, with TK-10 renal and with SW-620 colon was > 100 µM throughout.

Take `Cc1nn(C(=O)c2ccc(Cl)cc2)c2c1C(c1cccc([N+](=O)[O-])c1)SC(N)=N2` (stereo not drawn): the TGI with DU-145 prostate, in the experiment on NCI-H522 lung, in the experiment with HCT-116 colon, in the experiment on RXF 393 renal, with LOX IMVI melanoma and with OVCAR-5 ovarian was > 10 µM throughout. Moreover, the TGI in the experiment with OVCAR-4 ovarian, with MDA-N, with SK-MEL-2 melanoma, in the experiment on 786-0 renal, in the experiment on SK-MEL-28 melanoma and with KM12 colon was > 10 µM throughout. For the same molecule, the TGI with SR leukemia, in the experiment on NCI-H460 lung, in the experiment with OVCAR-8 ovarian, in the experiment with M14 melanoma, in the experiment on TK-10 renal and in the experiment on SW-620 colon was > 10 µM throughout.

With `O=C(CCCN1CCC2(CC1)NC(=O)c1ccccc1O2)c1ccc(F)cc1`, the TGI in the experiment on DU-145 prostate, in the experiment on NCI-H522 lung, in the experiment on HCT-116 colon, in the experiment with RXF 393 renal, in the experiment with LOX IMVI melanoma and in the experiment on UO-31 renal was > 100 µM in each case. For the same molecule, the TGI in the experiment on OVCAR-5 ovarian, in the experiment on OVCAR-4 ovarian, with MDA-N, in the experiment on SK-MEL-2 melanoma, in the experiment with 786-0 renal and with SK-MEL-28 melanoma was > 100 µM each time. Also, the TGI in the experiment with KM12 colon, with SR leukemia, in the experiment with NCI-H460 lung, with OVCAR-8 ovarian, in the experiment on M14 melanoma and in the experiment on TK-10 renal was > 100 µM each time. In addition, the TGI with SW-620 colon is > 100 µM.

As to `COC(=O)C1C(OC(=O)C(Cl)(c2ccccc2)c2ccccc2)CC2CCC1N2C` (stereo not drawn), the TGI in the experiment with DU-145 prostate, in the experiment with NCI-H522 lung, in the experiment with HCT-116 colon, in the experiment on RXF 393 renal, in the experiment with LOX IMVI melanoma and with UO-31 renal was > 100 µM in each case. Further, the TGI in the experiment on OVCAR-5 ovarian, in the experiment with MDA-N, in the experiment with 786-0 renal, in the experiment with SK-MEL-28 melanoma, with KM12 colon and in the experiment on SR leukemia was > 100 µM in each case. Further, the TGI in the experiment with OVCAR-8 ovarian, in the experiment with M14 melanoma, in the experiment on TK-10 renal and with SW-620 colon was > 100 µM each time.

For the molecule `COC(=O)[C@H]1C[C@H]1NC(=O)C(CC(=O)OCc1ccccc1)NC(=O)OCc1ccccc1` (stereo partly drawn), the TGI in the experiment with A498 renal, with DU-145 prostate, in the experiment on NCI-H522 lung, with HCT-116 colon, in the experiment on LOX IMVI melanoma and in the experiment with OVCAR-5 ovarian was > 100 µM throughout. Also, the TGI was > 100 µM in the experiment on MDA-N; 56.9 µM in the experiment on SK-MEL-2 melanoma; > 100 µM in the experiment with 786-0 renal; > 100 µM in the experiment with SK-MEL-28 melanoma; 77.1 µM with KM12 colon; > 100 µM with SR leukemia. Also, the TGI in the experiment on NCI-H460 lung was 72.4 µM; in the experiment on OVCAR-8 ovarian, > 100 µM; in the experiment on M14 melanoma, 52.1 µM; with TK-10 renal it was > 100 µM; in the experiment with SW-620 colon it was > 100 µM.

For the molecule `Cc1cnc(-c2c[nH]c3ccccc23)nc1-c1c[nH]c2ccccc12`, the TGI was determined as 7.03 µM in the experiment with A498 renal; 20.1 µM in the experiment with DU-145 prostate; 16.4 µM in the experiment on HCT-116 colon; 17.1 µM with LOX IMVI melanoma; 20.8 µM in the experiment on UO-31 renal; 20.9 µM in the experiment with OVCAR-5 ovarian. Besides, the TGI with OVCAR-4 ovarian is 24.3 µM; in the experiment on MDA-N, 15.8 µM; in the experiment on SK-MEL-2 melanoma, 20.6 µM; with 786-0 renal it was 10.7 µM; in the experiment with KM12 colon, 15.6 µM; in the experiment with SR leukemia it was 33.9 µM. Also, the TGI worked out at 14.8 µM in the experiment with NCI-H460 lung; 22.7 µM in the experiment on OVCAR-8 ovarian; 16.4 µM with M14 melanoma; 18.1 µM with TK-10 renal; 30.2 µM in the experiment with SW-620 colon.

As to `CCOC(=O)C(C)(C(=O)OCC)/C(Cl)=C\Cl`, the TGI with DU-145 prostate, in the experiment on NCI-H522 lung, in the experiment on HCT-116 colon, with RXF 393 renal, in the experiment with LOX IMVI melanoma and in the experiment with UO-31 renal was > 100 µM each time. Further, the TGI in the experiment on OVCAR-5 ovarian, in the experiment with OVCAR-4 ovarian, in the experiment with MDA-N, in the experiment with 786-0 renal, in the experiment on SK-MEL-28 melanoma and with KM12 colon was > 100 µM each time. The TGI in the experiment with SR leukemia, in the experiment with NCI-H460 lung, in the experiment on OVCAR-8 ovarian, in the experiment on M14 melanoma, with TK-10 renal and in the experiment on SW-620 colon was > 100 µM each time.

(Values after PubChem BioAssay (NCI).)
